Measurements published in the kinase profiling compilation of Christmann-Franck et al. (2016).

How the values were obtained:
Test in all cases: KINOMEscan competition binding
Conditions in all cases: compound 10.0 µM
CDK5 (human) = CDK5 (human) (UniProt Q00535)
CDC42BPG (human) = CDC42BPG (human) (UniProt Q6DT37)
CSNK1A1L (human) = CSNK1A1L (human) (UniProt Q8N752)
CDK17 (human) = CDK17 (human) (UniProt Q00537)
PIK3CD (human) = PIK3CD (human) (UniProt O00329)
[1] = system: FLT3 (human), P36888 [N841I]
CLK4 (human) = CLK4 (human) (UniProt Q9HAZ1)
DAPK2 (human) = DAPK2 (human) (UniProt Q9UIK4)
Sequence of DAPK2 (human) (Q9UIK4 whole entry, looked up): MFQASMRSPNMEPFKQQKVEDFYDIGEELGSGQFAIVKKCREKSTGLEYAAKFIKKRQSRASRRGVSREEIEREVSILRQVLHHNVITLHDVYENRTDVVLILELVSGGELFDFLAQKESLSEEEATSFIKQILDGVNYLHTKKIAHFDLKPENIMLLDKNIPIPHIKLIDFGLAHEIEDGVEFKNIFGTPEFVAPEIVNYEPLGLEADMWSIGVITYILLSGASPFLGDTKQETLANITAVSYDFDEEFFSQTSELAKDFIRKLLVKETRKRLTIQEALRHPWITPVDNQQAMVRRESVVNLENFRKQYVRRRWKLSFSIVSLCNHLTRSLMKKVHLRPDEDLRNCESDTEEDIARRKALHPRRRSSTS

[2] = target: TYK2 JH1 catalytic (human) (UniProt P29597)
DMPK (human) = DMPK (human) (UniProt Q09013)
CDC42BPA (human) = CDC42BPA (human) (UniProt Q5VT25)
STK11 (human) = STK11 (human) (UniProt Q15831)
ACVR2A (human) = ACVR2A (human) (UniProt P27037)
[3] = target: JAK3 JH1 catalytic (human) (UniProt P52333)
MAP3K11 (human) = MAP3K11 (human) (UniProt Q16584)
Sequence of MAP3K11 (human) (Q16584 whole entry, looked up): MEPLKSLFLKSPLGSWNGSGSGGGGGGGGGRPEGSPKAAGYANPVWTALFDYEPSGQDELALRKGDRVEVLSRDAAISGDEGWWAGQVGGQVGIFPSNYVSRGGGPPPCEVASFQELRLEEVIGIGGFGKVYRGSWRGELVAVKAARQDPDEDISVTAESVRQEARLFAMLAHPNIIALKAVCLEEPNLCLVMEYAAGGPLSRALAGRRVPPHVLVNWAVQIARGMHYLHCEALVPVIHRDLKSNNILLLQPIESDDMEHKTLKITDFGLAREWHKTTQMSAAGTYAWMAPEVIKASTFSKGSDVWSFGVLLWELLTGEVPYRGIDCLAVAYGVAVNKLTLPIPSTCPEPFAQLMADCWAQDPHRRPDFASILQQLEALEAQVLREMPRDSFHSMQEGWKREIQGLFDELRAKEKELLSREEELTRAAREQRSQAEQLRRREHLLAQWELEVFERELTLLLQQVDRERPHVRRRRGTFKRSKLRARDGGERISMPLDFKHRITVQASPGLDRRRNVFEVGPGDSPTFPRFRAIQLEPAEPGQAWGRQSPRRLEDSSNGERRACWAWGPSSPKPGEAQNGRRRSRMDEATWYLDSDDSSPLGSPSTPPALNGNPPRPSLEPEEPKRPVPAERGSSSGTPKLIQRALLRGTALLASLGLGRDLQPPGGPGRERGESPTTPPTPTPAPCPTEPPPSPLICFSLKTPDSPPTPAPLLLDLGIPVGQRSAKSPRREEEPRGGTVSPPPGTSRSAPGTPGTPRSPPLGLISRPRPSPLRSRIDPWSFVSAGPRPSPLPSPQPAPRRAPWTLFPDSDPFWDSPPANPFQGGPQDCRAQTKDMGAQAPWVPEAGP

MARK3 (human) = MARK3 (human) (UniProt P27448)
MST1R (human) = MST1R (human) (UniProt Q04912)
PAK3 (human) = PAK3 (human) (UniProt O75914)
PIK3C2B (human) = PIK3C2B (human) (UniProt O00750)
NEK9 (human) = NEK9 (human) (UniProt Q8TD19)
BMPR1A (human) = BMPR1A (human) (UniProt P36894)
MAP4K3 (human) = MAP4K3 (human) (UniProt Q8IVH8)
INSR (human) = INSR (human) (UniProt P06213)
STK4 (human) = STK4 (human) (UniProt Q13043)
CHEK1 (human) = CHEK1 (human) (UniProt O14757)
STK24 (human) = STK24 (human) (UniProt Q9Y6E0)
MERTK (human) = MERTK (human) (UniProt Q12866)
INSRR (human) = INSRR (human) (UniProt P14616)
FGFR1 (human) = FGFR1 (human) (UniProt P11362)
TLK2 (human) = TLK2 (human) (UniProt Q86UE8)
Sequence of TLK2 (human) (Q86UE8 whole entry, looked up): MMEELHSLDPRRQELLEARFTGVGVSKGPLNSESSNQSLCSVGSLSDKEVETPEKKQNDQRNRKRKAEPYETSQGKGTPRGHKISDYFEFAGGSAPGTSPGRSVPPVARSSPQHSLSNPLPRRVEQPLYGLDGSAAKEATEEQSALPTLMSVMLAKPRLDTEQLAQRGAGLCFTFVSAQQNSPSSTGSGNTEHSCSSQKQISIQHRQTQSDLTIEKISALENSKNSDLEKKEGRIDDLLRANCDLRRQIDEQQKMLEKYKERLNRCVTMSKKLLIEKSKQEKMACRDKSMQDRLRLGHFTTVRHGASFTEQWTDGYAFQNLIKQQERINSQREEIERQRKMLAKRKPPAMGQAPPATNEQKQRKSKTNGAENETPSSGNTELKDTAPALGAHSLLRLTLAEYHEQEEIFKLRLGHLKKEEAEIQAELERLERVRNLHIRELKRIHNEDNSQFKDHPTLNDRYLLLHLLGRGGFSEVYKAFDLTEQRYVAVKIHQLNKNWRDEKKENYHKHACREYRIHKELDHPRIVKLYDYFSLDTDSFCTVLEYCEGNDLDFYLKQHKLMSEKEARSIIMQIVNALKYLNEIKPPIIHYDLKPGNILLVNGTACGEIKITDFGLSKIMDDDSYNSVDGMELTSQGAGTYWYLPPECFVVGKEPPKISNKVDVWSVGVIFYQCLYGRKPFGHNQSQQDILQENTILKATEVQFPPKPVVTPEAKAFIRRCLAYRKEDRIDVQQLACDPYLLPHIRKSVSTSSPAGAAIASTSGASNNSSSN

PRKAA2 (human) = PRKAA2 (human) (UniProt P54646)
TGFBR2 (human) = TGFBR2 (human) (UniProt P37173)
[4] = system: KIT (human), P10721 [V559D]
Sequence of KIT (human), P10721 [V559D] (P10721 whole entry V559D, looked up): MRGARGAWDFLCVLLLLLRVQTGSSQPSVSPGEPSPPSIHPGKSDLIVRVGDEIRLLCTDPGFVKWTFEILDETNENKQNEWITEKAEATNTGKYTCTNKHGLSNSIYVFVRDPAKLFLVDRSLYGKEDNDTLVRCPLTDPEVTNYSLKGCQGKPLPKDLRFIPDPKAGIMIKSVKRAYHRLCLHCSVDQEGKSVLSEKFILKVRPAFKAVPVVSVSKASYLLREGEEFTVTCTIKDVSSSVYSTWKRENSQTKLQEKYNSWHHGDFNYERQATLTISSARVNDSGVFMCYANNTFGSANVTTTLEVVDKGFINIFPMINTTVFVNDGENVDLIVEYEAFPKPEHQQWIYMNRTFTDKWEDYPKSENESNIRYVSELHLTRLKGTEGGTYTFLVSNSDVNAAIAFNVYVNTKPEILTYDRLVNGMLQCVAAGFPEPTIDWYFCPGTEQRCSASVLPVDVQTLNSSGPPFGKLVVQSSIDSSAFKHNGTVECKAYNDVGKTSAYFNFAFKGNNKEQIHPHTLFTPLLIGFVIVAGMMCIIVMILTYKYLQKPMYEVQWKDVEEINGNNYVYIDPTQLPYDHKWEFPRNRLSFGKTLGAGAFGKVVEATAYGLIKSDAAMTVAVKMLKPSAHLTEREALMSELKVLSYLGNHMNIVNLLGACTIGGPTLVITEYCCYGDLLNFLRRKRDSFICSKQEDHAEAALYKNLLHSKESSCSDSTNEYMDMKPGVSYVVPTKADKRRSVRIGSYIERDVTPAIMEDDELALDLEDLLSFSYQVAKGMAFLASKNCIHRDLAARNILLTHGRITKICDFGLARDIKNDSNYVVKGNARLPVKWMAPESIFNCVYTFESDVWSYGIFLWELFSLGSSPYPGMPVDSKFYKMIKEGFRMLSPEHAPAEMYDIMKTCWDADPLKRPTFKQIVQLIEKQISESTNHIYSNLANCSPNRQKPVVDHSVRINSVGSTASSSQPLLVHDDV

CAMK2G (human) = CAMK2G (human) (UniProt Q13555)
FRK (human) = FRK (human) (UniProt P42685)
[5] = system: ABL1 (human), P00519 [M351T]
STK17A (human) = STK17A (human) (UniProt Q9UEE5)
Sequence of STK17A (human) (Q9UEE5 whole entry, looked up): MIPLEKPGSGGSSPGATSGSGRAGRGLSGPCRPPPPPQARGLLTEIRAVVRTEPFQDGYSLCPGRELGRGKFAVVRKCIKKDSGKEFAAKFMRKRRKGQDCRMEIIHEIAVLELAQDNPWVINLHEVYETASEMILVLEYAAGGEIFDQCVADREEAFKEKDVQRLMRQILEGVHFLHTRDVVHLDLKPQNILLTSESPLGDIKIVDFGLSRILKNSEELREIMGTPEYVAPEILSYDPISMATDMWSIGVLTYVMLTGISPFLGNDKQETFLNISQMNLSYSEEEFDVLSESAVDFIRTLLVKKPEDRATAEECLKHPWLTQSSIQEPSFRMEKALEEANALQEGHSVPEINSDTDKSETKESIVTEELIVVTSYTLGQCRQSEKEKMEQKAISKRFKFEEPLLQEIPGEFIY

AURKB (human) = AURKB (human) (UniProt Q96GD4)
MAPK8 (human) = MAPK8 (human) (UniProt P45983)
Sequence of MAPK8 (human) (P45983 whole entry, looked up): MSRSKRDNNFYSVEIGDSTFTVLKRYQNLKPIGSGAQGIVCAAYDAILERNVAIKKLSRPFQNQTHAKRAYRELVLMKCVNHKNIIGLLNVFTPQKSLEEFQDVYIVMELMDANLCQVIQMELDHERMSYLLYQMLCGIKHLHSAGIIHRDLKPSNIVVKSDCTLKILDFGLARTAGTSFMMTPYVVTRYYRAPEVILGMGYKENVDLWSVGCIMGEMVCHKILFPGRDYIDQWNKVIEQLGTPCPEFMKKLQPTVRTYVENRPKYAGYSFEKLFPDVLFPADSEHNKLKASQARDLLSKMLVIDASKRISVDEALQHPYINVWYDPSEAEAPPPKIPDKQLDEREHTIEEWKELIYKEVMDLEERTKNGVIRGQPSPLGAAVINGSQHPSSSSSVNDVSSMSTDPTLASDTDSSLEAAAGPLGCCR

PLK1 (human) = PLK1 (human) (UniProt P53350)
Sequence of PLK1 (human) (P53350 whole entry, looked up): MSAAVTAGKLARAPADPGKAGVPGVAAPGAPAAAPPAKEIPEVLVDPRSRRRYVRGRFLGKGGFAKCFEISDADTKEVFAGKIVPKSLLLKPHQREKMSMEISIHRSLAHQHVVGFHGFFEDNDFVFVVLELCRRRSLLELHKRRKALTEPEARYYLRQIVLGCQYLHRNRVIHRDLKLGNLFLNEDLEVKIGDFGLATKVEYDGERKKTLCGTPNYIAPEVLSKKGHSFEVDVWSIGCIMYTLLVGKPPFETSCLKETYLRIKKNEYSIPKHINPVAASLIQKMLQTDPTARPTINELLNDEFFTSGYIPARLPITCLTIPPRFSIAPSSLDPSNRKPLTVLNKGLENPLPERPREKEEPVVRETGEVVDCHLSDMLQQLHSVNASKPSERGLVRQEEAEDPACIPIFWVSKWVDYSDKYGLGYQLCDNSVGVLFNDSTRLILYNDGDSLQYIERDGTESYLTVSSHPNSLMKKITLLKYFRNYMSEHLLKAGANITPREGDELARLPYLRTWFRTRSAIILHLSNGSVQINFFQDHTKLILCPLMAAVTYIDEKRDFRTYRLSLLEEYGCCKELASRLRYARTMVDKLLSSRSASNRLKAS

Sequence of CSNK1A1L (human) (Q8N752 whole entry, looked up): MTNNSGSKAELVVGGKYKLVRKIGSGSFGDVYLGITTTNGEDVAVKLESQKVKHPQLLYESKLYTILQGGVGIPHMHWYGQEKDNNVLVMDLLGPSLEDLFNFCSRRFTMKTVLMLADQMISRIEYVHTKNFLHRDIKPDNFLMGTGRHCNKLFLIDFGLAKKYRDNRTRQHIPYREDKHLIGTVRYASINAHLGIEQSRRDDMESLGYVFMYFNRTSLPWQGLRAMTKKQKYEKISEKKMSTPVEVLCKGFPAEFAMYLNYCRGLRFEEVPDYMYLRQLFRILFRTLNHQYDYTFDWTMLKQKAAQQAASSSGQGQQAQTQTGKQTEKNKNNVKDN

| SMILES | kinase still bound, per cent of control (CDK5 (human)) | kinase still bound, per cent of control (CDC42BPG (human)) | kinase still bound, per cent of control (CSNK1A1L (human)) | kinase still bound, per cent of control (CDK17 (human)) | kinase still bound, per cent of control (PIK3CD (human)) | kinase still bound, per cent of control [1] | kinase still bound, per cent of control (CLK4 (human)) | kinase still bound, per cent of control (DAPK2 (human)) | kinase still bound, per cent of control [2] | kinase still bound, per cent of control (DMPK (human)) | kinase still bound, per cent of control (CDC42BPA (human)) | kinase still bound, per cent of control (STK11 (human)) | kinase still bound, per cent of control (ACVR2A (human)) | kinase still bound, per cent of control [3] | kinase still bound, per cent of control (MAP3K11 (human)) | kinase still bound, per cent of control (MARK3 (human)) | kinase still bound, per cent of control (MST1R (human)) | kinase still bound, per cent of control (PAK3 (human)) | kinase still bound, per cent of control (PIK3C2B (human)) | kinase still bound, per cent of control (NEK9 (human)) | other results |
| --- | --- | --- | --- | --- | --- | --- | --- | --- | --- | --- | --- | --- | --- | --- | --- | --- | --- | --- | --- | --- | --- |
| CCN1CCN(Cc2ccc(Nc3ncc4c(n3)N(C)c3ccccc3C(=O)N4C)cc2C(F)(F)F)CC1 | 84% | 92% | 74% | 88% | 0% | 21% | 100% | 70% | 2% | 91% | 70% | 89% | 56% | 9.8% | 84% | 11% | 100% | 9.4% | 71% | 72% | kinase still bound, per cent of control (BMPR1A (human)): 8.2%; kinase still bound, per cent of control (MAP4K3 (human)): 11%; kinase still bound, per cent of control (INSR (human)): 92%; kinase still bound, per cent of control (STK4 (human)): 72%; kinase still bound, per cent of control (CHEK1 (human)): 57%; kinase still bound, per cent of control (STK24 (human)): 35%; kinase still bound, per cent of control (MERTK (human)): 48%; kinase still bound, per cent of control (INSRR (human)): 100%; kinase still bound, per cent of control (FGFR1 (human)): 17%; kinase still bound, per cent of control (TLK2 (human)): 89%; kinase still bound, per cent of control (PRKAA2 (human)): 5%; kinase still bound, per cent of control (TGFBR2 (human)): 94%; kinase still bound, per cent of control [4]: 56%; kinase still bound, per cent of control (CAMK2G (human)): 81%; kinase still bound, per cent of control (FRK (human)): 19%; kinase still bound, per cent of control [5]: 0.65%; kinase still bound, per cent of control (STK17A (human)): 100%; kinase still bound, per cent of control (AURKB (human)): 0.95%; kinase still bound, per cent of control (MAPK8 (human)): 100%; kinase still bound, per cent of control (PLK1 (human)): 27% |
| C=CC(=O)Nc1cccc(Oc2nc(Nc3ccc(N4CCN(C)CC4)cc3OC)ncc2Cl)c1 | 100% | 100% | 100% | 100% | 100% | 0.25% | 12% | 28% | 100% | 17% | 100% | 100% | 100% | 0.4% | 100% | 7.8% | 100% | 100% | 100% | 100% | kinase still bound, per cent of control (BMPR1A (human)): 100%; kinase still bound, per cent of control (MAP4K3 (human)): 29%; kinase still bound, per cent of control (INSR (human)): 17%; kinase still bound, per cent of control (STK4 (human)): 100%; kinase still bound, per cent of control (CHEK1 (human)): 7%; kinase still bound, per cent of control (STK24 (human)): 100%; kinase still bound, per cent of control (MERTK (human)): 100%; kinase still bound, per cent of control (INSRR (human)): 13%; kinase still bound, per cent of control (FGFR1 (human)): 10%; kinase still bound, per cent of control (TLK2 (human)): 100%; kinase still bound, per cent of control (PRKAA2 (human)): 100%; kinase still bound, per cent of control (TGFBR2 (human)): 100%; kinase still bound, per cent of control [4]: 26%; kinase still bound, per cent of control (CAMK2G (human)): 100%; kinase still bound, per cent of control (FRK (human)): 28%; kinase still bound, per cent of control [5]: 100%; kinase still bound, per cent of control (STK17A (human)): 1.6%; kinase still bound, per cent of control (AURKB (human)): 20%; kinase still bound, per cent of control (MAPK8 (human)): 17%; kinase still bound, per cent of control (PLK1 (human)): 16% |
